Test results taken from patent US20180000085A1, “USE OF PICOLINAMIDE COMPOUNDS WITH FUNGICIDAL ACTIVITY” (DOW AGROSCIENCES LLC, priority 2014, published 2018).

How the values were obtained:
Type in all cases: in vivo
Pyricularia oryzae = conditions: 100 ppm; 1 Day Protectant; rice
[1] = test system: Colletotrichum lagenarium; assay: Cucumber anthracnose (COLLLA) disease control; conditions: 100 ppm, 1 Day Protectant
Experimental: All fungicides were evaluated using the aforementioned method for their activity vs. all target diseases, unless stated otherwise. Wheat leaf blotch and brown rust activity were also evaluated using track spray applications, in which case the fungicides were formulated as EC formulations, containing 0.1% Trycol 5941 in the spray solutions. Wheat plants (variety Yuma) were grown from seed in a greenhouse in 50% mineral soil/50% soil-less Metro mix until the first leaf was fully emerged, with 7-10 seedlings per pot. These plants were inoculated with an aqueous spore suspension of Zymoseptoria tritici either prior to or after fungicide treatments. After inoculation the plants were kept in 100% relative humidity (one day in a dark dew chamber followed by two to three days in a lighted dew chamber at 20° C.) to permit spores to germinate and infect the leaf. The plants were then transferred to a greenhouse set at 20° C. for disease to develop. When disease symptoms were fully expressed on the 1st leaves of untreated plants, infection levels were assessed on a scale of 0 to 100 percent disease severity. Percent disease control was calculated using the ratio of disease severity on treated plants relative to untreated plants. Example K: Evaluation of Fungicidal Activity: Cucumber Anthracnose (Colletotrichum lagenarium; Bayer Code COLLLA) Cucumber seedlings (variety Bush Pickle) were propagated in soil-less Metro mix, with each pot having one plant, and used in the test when 12 to 14 days old. Test plants were inoculated with an aqueous spore suspension of Colletotrichum lagenarium 24 hr after fungicide treatments. After inoculation the plants were kept in a dew room at 22° C. with 100% relative humidity for 48 hr to permit spores to germinate and infect the leaf. The plants were then transferred to a growth room set at 22° C. for disease to develop. Fungicide formulation, application and disease assessment on the sprayed leaves followed the procedures as described in the Example A.

Phakopsora pachyrhizi = assay: Asian soybean rust (PHAKPA) disease control; conditions: 25 ppm; for PHAKPA disease control, 1DP: 1 Day Protectant; for PHAKPA disease control, 3DC: 3 Day Curative
Zymoseptoria tritici = assay: Leaf blotch of wheat (SEPTTR) disease control on wheat seedlings; conditions: low volume application, 125.1 g/H
Leptosphaeria nodorum = assay: Wheat glume blotch (LEPTNO) disease control; conditions: 100 ppm, 1 Day Protectant
Experimental: All fungicides were evaluated using the aforementioned method for their activity vs. all target diseases, unless stated otherwise. Wheat leaf blotch and brown rust activity were also evaluated using track spray applications, in which case the fungicides were formulated as EC formulations, containing 0.1% Trycol 5941 in the spray solutions. Wheat plants (variety Yuma) were grown from seed in a greenhouse in 50% mineral soil/50% soil-less Metro mix until the first leaf was fully emerged, with 7-10 seedlings per pot. These plants were inoculated with an aqueous spore suspension of Zymoseptoria tritici either prior to or after fungicide treatments. After inoculation the plants were kept in 100% relative humidity (one day in a dark dew chamber followed by two to three days in a lighted dew chamber at 20° C.) to permit spores to germinate and infect the leaf. The plants were then transferred to a greenhouse set at 20° C. for disease to develop. When disease symptoms were fully expressed on the 1st leaves of untreated plants, infection levels were assessed on a scale of 0 to 100 percent disease severity. Percent disease control was calculated using the ratio of disease severity on treated plants relative to untreated plants. Example C: Evaluation of Fungicidal Activity: Wheat Glume Blotch (Leptosphaeria nodorum; Bayer Code […]) Wheat plants (variety Yuma) were grown from seed in a greenhouse in 50% mineral soil/50% soil-less Metro mix until the first leaf was fully emerged, with 7-10 seedlings per pot. These plants were inoculated with an aqueous spore suspension of Leptosphaeria nodorum 24 hr after fungicide treatments. After inoculation the plants were kept in 100% relative humidity (one day in a dark dew chamber followed by two days in a lighted dew chamber at 20° C.) to permit spores to germinate and infect the leaf. The plants were then transferred to a greenhouse set at 20° C. for disease to develop. Fungicide formulation, application and disease assessment followed the procedures as described in the Example A.

Row | Compound | PYRIOR disease control, 1DP (Pyricularia oryzae) | COLLLA disease control, 1DP [1] | PHAKPA disease control, 1DP (Phakopsora pachyrhizi) | PHAKPA disease control, 3DC (Phakopsora pachyrhizi) | SEPTTR 1DP disease control rating, LV activity at 125.1 g/H (Zymoseptoria tritici; 1 day protectant) | SEPTTR 3DC disease control rating, LV activity at 125.1 g/H (Zymoseptoria tritici; 3 day curative) | LEPTNO disease control, 1DP (Leptosphaeria nodorum) | SEPTTR 1DP, LV activity at 125.1 g/H (% Control rating) (Zymoseptoria tritici; 1 Day Protectant) | SEPTTR 3DC, LV activity at 125.1 g/H (% Control rating) (Zymoseptoria tritici; 3 Day Curative)
1 | CCC(C)C(Oc1ccccc1)C(C)OC(=O)C(C)NC(=O)c1nccc(OC)c1OCOC(C)=O (centres unmarked) [Cmpd 692] | A (> 80) | A (> 80) | A (> 80) | B (≤ 80) | A (> 80) | A (> 80) | A (> 80) |  | 
2 | COc1ccnc(C(=O)N[C@@H](C)C(=O)O[C@@H](C)[C@H](Oc2ccccc2)C2CCCC2)c1OCOC(C)=O [Cmpd 556] | A (> 80) | A (> 80) | A (> 80) | B (≤ 80) |  |  | A (> 80) | A (> 80) | A (> 80)
